Reference: patent US8105745B2, “Radiation crosslinker” (National University of Singapore, priority 2005, dated 2012)

Legend:
[1] = solubility in solvents; format: physicochemical
[2] = stability of the azide in acidified aqueous MeOD (19F NMR, FTIR); format: physicochemical
Experimental: The azide compounds according to the present invention are stable even in strongly acidic aqueous environment. […] Its ^19F NMR spectrum is acquired within 5 min and again after 21 days. […] This was further confirmed through FTIR analysis of the solid recovered by evaporation after the ^19F NMR experiment. No change in the azide stretching intensity (νasN3, 2129 cm^−1) normalized against benzene (νring, 1546 cm^−1) was observed.

Compound | solubility in H2O [1] | change of 19F NMR spectrum ([2]; 16 mg mL^-1 in acidified deuterated MeOD containing 2.4 M HCl and 6.5 M H2O, within 5 min vs after 21 days) | change in azide stretching intensity (FTIR, 2129 cm^-1) normalized against benzene ring band ([2]; solid recovered by evaporation after the 19F NMR experiment (21 days in acidic aqueous MeOD))
C[N+](C)(CCCNC(=O)c1c(F)c(F)c(N=[N+]=[N-])c(F)c1F)CCCNC(=O)c1c(F)c(F)c(N=[N+]=[N-])c(F)c1F [V] | soluble in H2O | – | –
N,N-dimethyl-N,N-dipropylene bis(4-azido-2,3,5,6-tetrafluorobenzamide) ammonium iodide | – | No observable change | No change
